Data from US8247211B2, “Glycopeptide antibiotics” (American Cyanamid Company, priority 2001, dated 2012).
Values after ≈ are worked out from the molar mass of the structure shown.

Legend:
Assay in all cases: In vitro antibacterial evaluation: minimum inhibitory concentration (MIC), broth dilution method
Format in all cases: cell-based
Staphylococcus sp. = details: for MIC Staphylococcus aureus (ATCC 29213): strain ATCC 29213; for MIC Staphylococcus aureus (GC 1131): strain GC 1131; for MIC Staphylococcus aureus (GC 3051): strain GC 3051; for MIC Staphylococcus aureus (GC 3053): strain GC 3053; for MIC Staphylococcus aureus (GC 4541): strain GC 4541; for MIC Staphylococcus aureus (GC 4542): strain GC 4542; for MIC Staphylococcus aureus (GC 4544): strain GC 4544; for MIC Staphylococcus aureus (GC 4545): strain GC 4545
Outline: (§1)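 NCCLS M7-A2 broth dilution; Muller-Hinton II […]; 5×10^5 CFU/mL; 64-0.06 μg/mL. MIC = lowest concentration with no growth.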

Escherichia coli = details: 5×10^5 CFU/mL, 18 hours at 35° C.
Outline: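 Susceptibility determined by NCCLS-recommended broth dilution (M7-A2), Muller-Hinton II […]. Concentration span 64-0.06 μg/mL, inoculum 5×10^5 CFU/mL. Isolates include strains resistant to methicillin, penicillin and/or vancomycin.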

Streptococcus sp. = details: broth dilution, 5×10^5 CFU/mL, 18 hours at 35° C.
Outline: as §1

Enterococcus sp. = details: broth dilution, 5×10^5 CFU/mL, 18 hours at 35° C.
Outline: as §1

[1] = broth dilution, 5×10^5 CFU/mL, 18 hours at 35° C.
[2] = broth dilution, 18 hours at 35° C.

CC(C)=CCCC(C)C1OCC2OC(OC3C(CO)OC(Oc4ccc(CC5NC(=O)C(C(C)c6ccccc6)NC(=O)CNC(=O)C(CO)NC(=O)C(C(O)C6CNC(=N)N6C6OC(CO)C(O)C(O)C6O)NC(=O)C(C(O)C6CNC(=N)N6)NC5=O)cc4)C(O)C3O)C(O)C(O)C2O1 (stereo not drawn) [Example 125, Cyclo[glycyl-β-methylphenylalanyl-O-[4-O-[4,6-O-[2,6-dimethylhept-5-en-1-yidene)hexopyranosyl]hexopyranosyl]tyrosyl-3-(2-iminoimidazolidin-4-yl)seryl-3-(3-hexopyranosyl-2-iminoimidazolidin-4-yl)serylseryl]]
MIC Coagulase Negative Staphylococcus (GC 4547) (Staphylococcus sp.; [1]): 32 µg/mL (≈ 22.6 µM) | MIC Coagulase Negative Staphylococcus (GC 4548) (Staphylococcus sp.; [1]): 32 µg/mL (≈ 22.6 µM) | MIC Coagulase Negative Staphylococcus (GC 4549) (Staphylococcus sp.; [1]): 32 µg/mL (≈ 22.6 µM) | MIC Coagulase Negative Staphylococcus (GC 4551) (Staphylococcus sp.; [1]): 32 µg/mL (≈ 22.6 µM) | MIC Coagulase Negative Staphylococcus (GC 6257) (Staphylococcus sp.; [1]): 32 µg/mL (≈ 22.6 µM) | MIC Staphylococcus aureus-SMITH (GC 4543) (Staphylococcus sp.; [1]): 32 µg/mL (≈ 22.6 µM) | MIC Staphylococcus haemolyticus (GC 4546) (Staphylococcus sp.; [1]): 32 µg/mL (≈ 22.6 µM) | MIC Staphylococcus aureus (ATCC 29213) (Staphylococcus sp.): 32 µg/mL (≈ 22.6 µM) | MIC Staphylococcus aureus (ATCC 29213) (Staphylococcus sp.; [2]): 32 µg/mL (≈ 22.6 µM) | MIC Staphylococcus aureus (GC 1131) (Staphylococcus sp.): 32 µg/mL (≈ 22.6 µM) | MIC Staphylococcus aureus (GC 1131) (Staphylococcus sp.; [2]): 32 µg/mL (≈ 22.6 µM) | MIC Staphylococcus aureus (GC 3051) (Staphylococcus sp.): 32 µg/mL (≈ 22.6 µM) | MIC Staphylococcus aureus (GC 3051) (Staphylococcus sp.; [2]): 32 µg/mL (≈ 22.6 µM) | MIC Staphylococcus aureus (GC 3053) (Staphylococcus sp.): 32 µg/mL (≈ 22.6 µM) | MIC Staphylococcus aureus (GC 3053) (Staphylococcus sp.; [2]): 32 µg/mL (≈ 22.6 µM) | MIC Staphylococcus aureus (GC 4541) (Staphylococcus sp.): 8 µg/mL (≈ 5.64 µM) | MIC Staphylococcus aureus (GC 4541) (Staphylococcus sp.; [2]): 8 µg/mL (≈ 5.64 µM) | MIC Staphylococcus aureus (GC 4542) (Staphylococcus sp.): 32 µg/mL (≈ 22.6 µM) | MIC Staphylococcus aureus (GC 4542) (Staphylococcus sp.; [2]): 32 µg/mL (≈ 22.6 µM) | MIC Staphylococcus aureus-SMITH (GC 4543) (Staphylococcus sp.; strain GC 4543, broth dilution, 18 hours at 35° C.): 32 µg/mL (≈ 22.6 µM) | MIC Staphylococcus aureus (GC 4544) (Staphylococcus sp.): 32 µg/mL (≈ 22.6 µM) | MIC Staphylococcus aureus (GC 4544) (Staphylococcus sp.; [2]): 32 µg/mL (≈ 22.6 µM) | MIC Staphylococcus aureus (GC 4545) (Staphylococcus sp.): 32 µg/mL (≈ 22.6 µM) | MIC Staphylococcus aureus (GC 4545) (Staphylococcus sp.; [2]): 32 µg/mL (≈ 22.6 µM) | MIC Staphylococcus haemolyticus (GC 4546) (Staphylococcus sp.; strain GC 4546, broth dilution, 18 hours at 35° C.): 32 µg/mL (≈ 22.6 µM) | MIC Coagulase Negative Staphylococcus (GC 4547) (Staphylococcus sp.; strain GC 4547, broth dilution, 18 hours at 35° C.): 32 µg/mL (≈ 22.6 µM) | MIC Coagulase Negative Staphylococcus (GC 4548) (Staphylococcus sp.; strain GC 4548, broth dilution, 18 hours at 35° C.): 32 µg/mL (≈ 22.6 µM) | MIC Coagulase Negative Staphylococcus (GC 4549) (Staphylococcus sp.; strain GC 4549, broth dilution, 18 hours at 35° C.): 32 µg/mL (≈ 22.6 µM) | MIC Coagulase Negative Staphylococcus (GC 4551) (Staphylococcus sp.; strain GC 4551, broth dilution, 18 hours at 35° C.): 32 µg/mL (≈ 22.6 µM) | MIC Coagulase Negative Staphylococcus (GC 6257) (Staphylococcus sp.; strain GC 6257, broth dilution, 18 hours at 35° C.): 32 µg/mL (≈ 22.6 µM) | MIC Escherichia coli (ATCC 25922) (Escherichia coli): >64 µg/mL | MIC Escherichia coli (GC 4559) (Escherichia coli): >64 µg/mL | MIC Escherichia coli (GC 4560) (Escherichia coli): 32 µg/mL (≈ 22.6 µM) | MIC Streptococcus agalactiae (GC 4564) (Streptococcus sp.): 1 µg/mL (≈ 0.705 µM) | MIC Streptococcus pneumoniae (GC 1894) (Streptococcus sp.): 0.12 µg/mL (≈ 0.0847 µM) | MIC Streptococcus pneumoniae (GC 4565) (Streptococcus sp.): 0.25 µg/mL (≈ 0.176 µM) | MIC Streptococcus pneumonine (ATCC 6301) (Streptococcus sp.): 0.25 µg/mL (≈ 0.176 µM) | MIC Streptococcus pyogenes (GC 4563) (Streptococcus sp.): 0.5 µg/mL (≈ 0.353 µM) | MIC Enterococccus avium (GC 4558) (Enterococcus sp.): 32 µg/mL (≈ 22.6 µM) | MIC Enterococccus faecalis (ATCC 29212) (Enterococcus sp.): 32 µg/mL (≈ 22.6 µM) | MIC Enterococccus faecalis (GC 2691) (Enterococcus sp.): 32 µg/mL (≈ 22.6 µM) | MIC Enterococccus faecalis (GC 3059) (Enterococcus sp.): 32 µg/mL (≈ 22.6 µM) | MIC Enterococccus faecalis (GC 4552) (Enterococcus sp.): 32 µg/mL (≈ 22.6 µM) | MIC Enterococccus faecalis (GC 4553) (Enterococcus sp.): 32 µg/mL (≈ 22.6 µM) | MIC Enterococccus faecalis (GC 4554) (Enterococcus sp.): 32 µg/mL (≈ 22.6 µM) | MIC Enterococccus faecalis (GC 6189) (Enterococcus sp.): 32 µg/mL (≈ 22.6 µM) | MIC Enterococccus faecium (GC 2243) (Enterococcus sp.): 32 µg/mL (≈ 22.6 µM) | MIC Enterococccus faecium (GC 4556) (Enterococcus sp.): 32 µg/mL (≈ 22.6 µM) | MIC Enterococccus faecium (GC 4557) (Enterococcus sp.): 16 µg/mL (≈ 11.3 µM) | MIC Enterococcus faecalis (GC 2242) (Enterococcus sp.): 32 µg/mL (≈ 22.6 µM)
